Series [1] in a line: Hygroscopicity of the crystalline form. The class given is physicochemical. The note with it: solid crystalline form.
A short description of series [2]: Thermodynamic stability of crystal forms. The following applies: among free acid crystal forms of Compound II.

With `CC[C@@H](Oc1cccc(-n2c(C)c(C(=O)c3ccc(OC)cc3)c3ccc(OC(F)(F)F)cc32)c1)C(=O)O` [crystalline dihydrate, (2R)-2-{3-[3-(4-methoxybenzoyl)-2-methyl-6-(trifluoromethoxy)-1H-indol-1-yl]phenoxy}butanoic acid], the hygroscopicity entry in series [1] is “non-hygroscopic”.

As to `CC[C@@H](Oc1cccc(Cn2c(C)c(C(=O)c3ccc(Cl)cc3)c3ccc(OC(F)(F)F)cc32)c1)C(=O)O` [Acid Form C, (2R)-2-{3-[[3-(4-chlorobenzoyl)-2-methyl-6-(trifluoromethoxy)-1H-indol-1-yl]methyl]phenoxy}butyric acid], the “thermodynamic stability of crystal form” value was “thermodynamically stable” in series [2] and “most thermodynamically stable acid form” in series [2] (listed as Form C free acid).
